PubChem BioAssay AID1996
Converted amounts (≈) assume the structure as drawn.

Settings: buffer; pH 7.4; 200.0 µM

Compound | solubility kinetic
COc1cc(C)nc(-c2csc(C)n2)n1 | 28.6 µg/mL (≈ 129 µM)
CC(C)CCNC(=O)c1cc2c(=O)n3ccccc3nc2s1 | 4.6 µg/mL (≈ 14.6 µM)
CC1CCCN1CC#CC(O)(c1ccccc1)c1ccccc1.Cl (stereo not given) | 46.9 µg/mL
Cc1ccc([N+](=O)[O-])cc1NC(=O)C1CCCC1 | 9.4 µg/mL (≈ 37.9 µM)
COc1cc(/C=C/[N+](=O)[O-])ccc1OC(=O)/C=C/c1ccc(F)cc1 | < 0.7 µg/mL
CN1CCN(CC(O)COc2ccc(C(=O)O)cc2)CC1 (stereo not given) | 35.5 µg/mL (≈ 121 µM)
Cc1c(C)n(Cc2ccccc2)c2ccc(C(=O)O)cc12 | > 41.9 µg/mL
COc1ccc(C(C)(C)C)cc1NC(=O)c1ccc[n+]([O-])c1 | > 45.1 µg/mL
COc1ccccc1NCCC(=O)OCC(=O)Nc1cc([N+](=O)[O-])ccc1F | 51.8 µg/mL (≈ 132 µM)
COc1ccccc1N(C)S(=O)(=O)c1ccc(C(=O)Nc2cccc(Br)c2)cc1 | 3 µg/mL (≈ 6.31 µM)
CCCCCNC(=O)c1ccc2c(c1)ncn2-c1ccc(OC)cc1 | 26.9 µg/mL (≈ 79.7 µM)
O=Cc1cc2cc3c(cc2nc1Cl)OCCO3 | 0.9 µg/mL (≈ 3.61 µM)
O=C(Cn1ccccc1=O)NCc1ccc(F)cc1 | 24.1 µg/mL (≈ 92.6 µM)
CCCNC(=O)c1ccc(COc2ccc(C(C)(C)C)cc2)o1 | 10.9 µg/mL (≈ 34.6 µM)
CC(NS(=O)(=O)c1ccccc1)C(=O)NC1CCCC1 (stereo not given) | > 44.5 µg/mL
CCOC(=O)c1sc2nc(C)[nH]c(=O)c2c1C | 2.7 µg/mL (≈ 10.7 µM)
COc1cccc(-c2nc3ccc(N4CCN(C)CC4)cc3[nH]2)c1 | 14.5 µg/mL (≈ 45 µM)
Cc1cc(NC(=O)C2CC(=O)N(c3cccc(Cl)c3)C2)no1 (stereo not given) | 16.3 µg/mL (≈ 51 µM)
O=[N+]([O-])c1ccc2nc(-c3ccncc3)[nH]c2c1 | 8 µg/mL (≈ 33.3 µM)
COc1ccc(C(=O)C(C)OC(=O)CN2C(=O)c3ccccc3C2=O)cc1 (stereo not given) | > 55.1 µg/mL

Compound | solubility kinetic
COc1ccc(CN(C)C(=O)c2sccc2-c2ccccc2)c(OC)c1 | 12 µg/mL (≈ 32.7 µM)
COc1cccc(NC(=O)CN2C(=O)C(=O)N(C3CCCC3)C2=O)c1 | > 51.8 µg/mL
C=CCNC(=S)/N=c1/ccccn1CCC | 35.1 µg/mL (≈ 149 µM)
CC(=O)Nc1cccc(-c2nc3ccccc3[nH]2)c1 | > 37.7 µg/mL
CC1CC(C)CN(C(=O)c2ccc(S(=O)(=O)N3CCCCC3)cc2)C1 (stereo not given) | 5.1 µg/mL (≈ 14 µM)
O=C(COc1ccccc1)N1CCN=C1SCc1ccc(F)cc1 | 6.4 µg/mL (≈ 18.6 µM)
Cn1c(N)c(C(=O)CSc2nnc3n2CCCCC3)c(=O)n(C)c1=O | > 54.7 µg/mL
O=C(c1ccc(Oc2ccc(Cl)cc2)c([N+](=O)[O-])c1)N1CCCC1 | 41.1 µg/mL (≈ 119 µM)
CCc1ccc(N2CC(C(=O)N3CCCC3)CC2=O)cc1 (stereo not given) | 35.2 µg/mL (≈ 123 µM)
CC1C(=O)N2CCCc3cc(NC(=O)C(=O)NCc4ccccn4)cc1c32 (stereo not given) | > 54.7 µg/mL
Cc1nn(C)c(Cl)c1CN1CCN(CCC(C)C)C(CCO)C1 (stereo not given) | > 51.4 µg/mL
CCc1cc2cccc(C)c2nc1SCC(=O)NC1CCCC1 | < 0.4 µg/mL
O=C(Cn1c(=O)oc2ccc(Cl)cc21)Nc1ccon1 | 6.2 µg/mL (≈ 21.1 µM)
O=C1CCC([N+](=O)[O-])C(c2cc(Br)ccc2F)N1 (stereo not given) | 46.4 µg/mL (≈ 146 µM)
N#Cc1ccc(N2CCN(C(=O)c3cccs3)CC2)c(F)c1 | 40.1 µg/mL (≈ 127 µM)
COC(=O)c1ccc(NC(=O)CN2C(=O)NC3(CCC(C)CC3)C2=O)cc1 (stereo not given) | 10.1 µg/mL (≈ 27 µM)
O=C(Oc1cc(=O)oc2c1c(=O)n1c3c(cccc23)CC1)c1ccccc1 | 33 µg/mL (≈ 91.8 µM)
COc1ccccc1NS(=O)(=O)c1cc(NC(=O)COc2ccccc2)ccc1N1CCOCC1 | 8.1 µg/mL (≈ 16.3 µM)
COc1cc(S(=O)(=O)NC2CCCC2)c(OC)cc1C | 26.5 µg/mL (≈ 88.5 µM)
CCCc1cc(=O)[nH]c(SCC(=O)N2CCCC2=O)n1 | > 44.3 µg/mL

Compound | solubility kinetic
Clc1ccccc1OCCCCN1CCCCC1 | 39.9 µg/mL (≈ 149 µM)
COC(=O)CSc1nc2ccc(N)cc2s1 | > 38.1 µg/mL
c1ccc(-c2nc(-c3cccnc3)cs2)cc1 | 21.4 µg/mL (≈ 89.8 µM)
Oc1ccc(N2Cc3ccccc3C2)cc1 | 9.9 µg/mL (≈ 46.9 µM)
C=CCn1c(NCc2ccccc2OC)nc2ccccc21 | 30.2 µg/mL (≈ 103 µM)
O=C(OC1CCOC1=O)c1cc(Cl)ccc1[N+](=O)[O-] (stereo not given) | 42.1 µg/mL (≈ 147 µM)
Cc1ccc(NC(=O)N2CCCCCC2)c(C)c1 | > 37 µg/mL
CCC(=O)NC(Cc1ccccc1)c1nc2ccccc2[nH]1 (stereo not given) | > 44 µg/mL
COc1ccc(CC(=O)Nc2nc3ccccc3[nH]2)cc1 | 0.7 µg/mL (≈ 2.49 µM)
Cc1cccc(C)c1N1C(=O)CC(N2CCN(S(=O)(=O)c3ccccc3F)CC2)C1=O (stereo not given) | 50.7 µg/mL (≈ 114 µM)
N/C(=N\OC(=O)c1cccc(Br)c1)c1ccc([N+](=O)[O-])cc1 | 1.4 µg/mL (≈ 3.84 µM)
COc1ccc(C(C)(C)C)cc1NC(=O)COC(=O)CN1C(=O)NC2(CCCCC2C)C1=O (stereo not given) | 38 µg/mL (≈ 82.7 µM)
CCCc1cc(=O)[nH]c(SCC(=O)N2c3ccccc3CC2C)n1 (stereo not given) | > 51.5 µg/mL
Cc1ccc(NC2c3ccccc3C(=O)N2c2cccnc2)cc1 (stereo not given) | 40.5 µg/mL (≈ 128 µM)
CC1CCCN(CCS(=O)(=O)c2ccccc2)C1 (stereo not given) | 39.5 µg/mL (≈ 148 µM)
COc1ccc(OCCC(=O)OCC(=O)NCc2ccc(F)cc2)cc1 | 33.5 µg/mL (≈ 92.7 µM)
O=C(NCc1cccnc1)C1CCC(c2ccc(Cl)cc2)CC1 (stereo not given) | 14.9 µg/mL (≈ 45.3 µM)
CCCN1CCN(C(=S)Nc2sc(CC)cc2C(=O)OC)CC1 | 0.6 µg/mL (≈ 1.69 µM)
ClCC1CN(Cc2ccccc2Cl)CCO1 (stereo not given) | 17.3 µg/mL (≈ 66.5 µM)
O=C(COc1ccc(Br)cc1)N1CCc2ccccc2C1 | 20.8 µg/mL (≈ 60.1 µM)
